This note sets out measurements from ChEMBL document CHEMBL4665802, “Design, Synthesis, and Structure-Activity Relationships of Indoline-Based Kelch-like ECH-Associated Protein 1-Nuclear Factor (Erythroid-Derived 2)-Like 2 (Keap1-Nrf2) Protein-Protein Interaction Inhibitors” (J Med Chem, 2020).

The nature of data set [1]: Intrinsic clearance in human liver microsome at 1 uM preincubated for 5 mins followed by NADPH addition and measured after 45 mins by LC-MS/MS analysis. The class given is ADME. Particulars: microsomes, 0.75 h.
Data set [2] deals with CYP2C9 (Homo sapiens, UniProt P11712). As to the kind of experiment: Inhibition of CYP2C9 (unknown origin) at 10 uM using […] as substrate preincubated for 5 mins followed by NADPH addition and measured after 20 mins by LC-MS/MS analysis relative to control. The class given is ADME.
In data set [3] the target is CYP2C19 (Homo sapiens, UniProt P33261). As to the kind of experiment: Inhibition of CYP2C19 (unknown origin) at 10 uM using omeprazole as substrate preincubated for 5 mins followed by NADPH addition and measured after 20 mins by LC-MS/MS analysis relative to control. The format is ADME. Particulars: probe omeprazole.
The target of data set [4] is CYP3A4 (Homo sapiens, UniProt P08684). As to the kind of experiment: Inhibition of CYP3A4 (unknown origin) at 10 uM using […] as substrate preincubated for 5 mins followed by NADPH addition and measured after 20 mins by LC-MS/MS analysis relative to control. The format is ADME.
A short description of data set [5]: AUC (0 to t) in rat at 5 mg/kg, iv by LC-MS/MS analysis. Particulars: in vivo. The format is ADME, organism-based. The arrangement: dose 5 mg/kg.
Data set [6] can be described thus: AUC (0 to infinity) in rat at 5 mg/kg, iv by LC-MS/MS analysis. The format is ADME, organism-based. More on the design: time infinity, route intravenous, dose 5 mg/kg. Particulars: in vivo.
Data set [7] can be described thus: Half-life in rat at 5 mg/kg, iv by LC-MS/MS analysis. Particulars: in vivo. The format is ADME, organism-based.
Data set [8] in a line: Apparent volume of distribution in rat at 5 mg/kg, iv by LC-MS/MS analysis. The following applies: in vivo, read-out: Vz. The class given is ADME, organism-based.
The target of data set [9] is T1, KEAP1/NRF2 (Rattus norvegicus) (UniProt O54968+P57790). As to the kind of experiment: Inhibition of Keap1-Nrf2 protein-protein interaction in rat H9c2 cells assessed as upregulation of HO1 mRNA expression incubated for 12 hrs by Trizol reagent based qRT-PCR analysis. The format is cell-based. Particulars: dose microM 0.1-10, time 12.0 hrs. Background: Real-time PCR tracks product formation cycle by cycle.

Data set [10] deals with T1, KEAP1/NRF2 (Rattus norvegicus). As to the kind of experiment: Inhibition of Keap1-Nrf2 protein-protein interaction in rat H9c2 cells assessed as upregulation of NQO1 mRNA expression incubated for 12 hrs by Trizol reagent based qRT-PCR analysis. The following applies: dose microM 0.1-10, time 12.0 hrs. The format is cell-based.
Data set [11] concerns H9c2. Nature of the data set: Upregulation of Nrf2 protein levels in rat H9c2 cells incubated for 12 hrs by Western blot analysis. The following applies: dose microM 0.1-10, time 12.0 hrs. The format is functional, cell-based. (Immunoblotting shows a protein as a band on a membrane.)
The target of data set [12] is T1, KEAP1/NRF2 (Rattus norvegicus). As to the kind of experiment: Inhibition of Keap1-Nrf2 protein-protein interaction in rat H9c2 cells assessed as upregulation of HO1 expression incubated for 12 hrs by Western blot analysis. The format is cell-based. Particulars: dose microM 0.1-10, time 12.0 hrs.
The target is the same in data set [13]. Nature of the data set: Inhibition of Keap1-Nrf2 protein-protein interaction in rat H9c2 cells assessed as upregulation of GCLM expression incubated for 12 hrs by Western blot analysis. The class given is cell-based. The following applies: dose microM 0.1-10, time 12.0 hrs.
Data set [14] relates to H9c2. As to the kind of experiment: Cytotoxicity against rat H9c2 cells assessed as reduction in cell viability up to 100 uM incubated for 24 hrs by MTT assay. The class given is cell-based. Particulars: h9c2, 24 h. On the technique in general: Tetrazolium assays rely on reduction of a dye to a coloured formazan, in cell work by metabolically active cells.
Data set [15] deals with H9c2. As to the kind of experiment: Antiinflammatory activity against LPS-induced sepsis in rat H9c2 cells assessed as decrease in secretion of TNF-alpha at 1 to 10 uM pretreated for 12 hrs followed by LPS addition measured after 12 hrs by sandwich ELISA. The class given is functional, cell-based. The following applies: dose microM 1-10, time 24.0 hrs.
In data set [16] the test system is H9c2. As to the kind of experiment: Antiinflammatory activity against LPS-induced sepsis in rat H9c2 cells assessed as decrease in secretion of IL-1beta at 1 to 10 uM pretreated for 12 hrs followed by LPS addition measured after 12 hrs by sandwich ELISA. The format is functional, cell-based. Particulars: dose microM 1-10, time 24.0 hrs.
Data set [17] deals with Mus musculus. Nature of the data set: Cardioprotective activity in LPS-stimulated sepsis in C57BL/6 mouse assessed as reduction in heart tissue damage at 10 mg/kg, ip qd administered for 3 days prior to LPS stimulation and measured after 12 hrs by hematoxylin and eosin staining based microscopy. The format is functional, organism-based. Particulars: time 3.5 day.
The test system of data set [18] is Mus musculus. Nature of the data set: Cardioprotective activity in LPS-stimulated sepsis in C57BL/6 mouse assessed as reduction in heart tissue inflammation at 10 mg/kg, ip qd administered for 3 days prior to LPS stimulation and measured after 12 hrs by hematoxylin and eosin staining based microscopy. The class given is functional, organism-based. The following applies: time 3.5 day.

The subject of data set [19] is Mus musculus. As to the kind of experiment: Antiinflammatory activity in LPS-stimulated sepsis in C57BL/6 mouse assessed as decrease in IL-6 levels at 10 mg/kg, ip qd administered for 3 days prior to LPS stimulation and measured after 12 hrs by ELISA. The following applies: time 3.5 day. The format is functional, organism-based.
The subject of data set [20] is Mus musculus. As to the kind of experiment: Upregulation of HO1 expression in LPS-stimulated C57BL/6 mouse model of sepsis at 10 to 40 mg/kg, ip qd administered for 3 days prior to LPS stimulation and measured after 12 hrs by Western blot analysis. The format is functional, organism-based. The following applies: dose mg/kg 10-40, time 3.5 day.
Data set [21] concerns Mus musculus. Nature of the data set: Upregulation of NQO1 expression in LPS-stimulated C57BL/6 mouse model of sepsis at 10 to 40 mg/kg, ip qd administered for 3 days prior to LPS stimulation and measured after 12 hrs by Western blot analysis. The class given is functional, organism-based. Particulars: dose mg/kg 10-40, time 3.5 day.
In data set [22] the test system is Mus musculus. Nature of the data set: Antioxidant activity against LPS-induced injury in C57BL/6 mouse assessed as reduction in ROS levels at 10 to 40 mg/kg, ip qd administered for 3 days prior to LPS stimulation and measured after 12 hrs by H2DCFDA probe based flow cytometry. Particulars: dose mg/kg 10-40, time 3.5 day. The class given is functional, organism-based.

Data set [23] deals with T1, KEAP1/NRF2 (Rattus norvegicus). Nature of the data set: Inhibition of Keap1-Nrf2 protein-protein interaction in rat H9c2 cells assessed as upregulation of HO1 mRNA expression at 10 uM incubated for 4 to 24 hrs by Trizol reagent based qRT-PCR analysis. The format is cell-based. The following applies: time hrs 4-24.
The target is the same in data set [24]. As to the kind of experiment: Inhibition of Keap1-Nrf2 protein-protein interaction in rat H9c2 cells assessed as upregulation of HO1 expression at 10 uM incubated up to 24 hrs by Western blot. The class given is cell-based. Particulars: time hrs <=24.

Calls of active or inactive are those of the source.

Sequence of CYP3A4 (P08684 whole entry): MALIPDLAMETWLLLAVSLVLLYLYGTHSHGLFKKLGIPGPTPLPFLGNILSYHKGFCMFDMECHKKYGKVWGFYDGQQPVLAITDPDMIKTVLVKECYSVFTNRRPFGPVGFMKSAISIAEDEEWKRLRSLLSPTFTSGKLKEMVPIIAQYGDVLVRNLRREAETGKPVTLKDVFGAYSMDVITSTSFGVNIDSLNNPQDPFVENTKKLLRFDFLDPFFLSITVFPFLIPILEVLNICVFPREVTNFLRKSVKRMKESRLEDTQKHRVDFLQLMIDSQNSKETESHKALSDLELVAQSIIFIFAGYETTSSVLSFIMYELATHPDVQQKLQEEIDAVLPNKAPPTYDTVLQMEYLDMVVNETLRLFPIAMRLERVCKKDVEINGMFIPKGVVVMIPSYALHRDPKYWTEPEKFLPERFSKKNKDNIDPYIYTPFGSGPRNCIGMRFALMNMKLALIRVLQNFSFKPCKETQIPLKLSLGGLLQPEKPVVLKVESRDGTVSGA
Sequence of CYP2C9 (P11712 whole entry): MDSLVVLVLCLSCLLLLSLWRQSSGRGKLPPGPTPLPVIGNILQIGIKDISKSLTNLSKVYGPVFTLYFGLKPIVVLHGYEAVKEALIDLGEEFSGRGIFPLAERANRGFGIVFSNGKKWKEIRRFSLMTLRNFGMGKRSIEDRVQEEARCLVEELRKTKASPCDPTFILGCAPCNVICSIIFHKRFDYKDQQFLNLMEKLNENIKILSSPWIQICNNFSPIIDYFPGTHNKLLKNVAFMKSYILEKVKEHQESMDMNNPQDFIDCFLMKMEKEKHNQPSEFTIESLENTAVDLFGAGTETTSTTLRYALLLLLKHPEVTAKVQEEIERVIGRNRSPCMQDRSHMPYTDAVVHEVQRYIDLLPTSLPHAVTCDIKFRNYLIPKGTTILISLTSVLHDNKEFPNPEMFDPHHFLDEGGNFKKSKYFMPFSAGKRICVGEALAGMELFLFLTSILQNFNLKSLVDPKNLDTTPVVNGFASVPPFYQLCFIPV
Sequence of CYP2C19 (P33261 whole entry): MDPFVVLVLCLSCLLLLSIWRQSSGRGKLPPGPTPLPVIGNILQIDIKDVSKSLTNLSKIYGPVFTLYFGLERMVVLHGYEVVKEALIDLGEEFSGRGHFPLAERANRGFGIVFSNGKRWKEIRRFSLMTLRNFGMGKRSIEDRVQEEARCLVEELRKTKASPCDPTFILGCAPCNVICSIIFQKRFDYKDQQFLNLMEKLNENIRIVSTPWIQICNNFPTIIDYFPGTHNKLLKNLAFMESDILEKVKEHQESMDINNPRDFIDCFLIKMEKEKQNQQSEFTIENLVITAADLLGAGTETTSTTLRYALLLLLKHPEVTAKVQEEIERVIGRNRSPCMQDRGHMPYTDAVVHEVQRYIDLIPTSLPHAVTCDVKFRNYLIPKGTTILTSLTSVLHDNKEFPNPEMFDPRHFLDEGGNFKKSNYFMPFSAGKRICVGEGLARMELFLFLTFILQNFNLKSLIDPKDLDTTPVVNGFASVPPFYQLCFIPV

A word on the inhibition: it is the change of the read-out against control, counted positive when it falls. As a reminder, the AUC(0-t) is the area under the concentration-time curve up to a stated or last time point. The low end stands for less exposure, the high end for more exposure. The term AUC(0-inf) denotes total exposure, with the tail of the curve extrapolated. Higher therefore signals high exposure. One may read the half-life as the time needed for the level to fall by half in the phase considered. In data set [1], `COc1ccc(S(=O)(=O)NC(=O)CN(c2cccc3c2CCN3C(C(=O)NS(=O)(=O)c2ccc(C)cc2OC)c2cccc(OC)c2)S(=O)(=O)c2ccc(OC)cc2)cc1` (centres undefined) had a CLH of 11.4 mL/min/kg. For the same compound, the inhibition at 20 min, 10 µM was found to be 30.3% in data set [2], 19.8% in data set [3] and 46.9% in [4]. The compound also yielded an AUC(0-t) in [5] of 47000 ng·h/mL. Moreover, the AUC(0-inf) in [6] was found to be 47000 ng·h/mL. This compound had a half-life in [7] of 4.02 h. In addition, in data set [8], the Vd stood at 0.64 L/kg. In addition, the inhibition entry in [9], in data set [10], in data set [12] and in data set [13] was “Dose-dependent effect” each time. The Activity entry in data set [11] was “Dose-dependent effect”; in data set [14], “Non-Toxic”. The result in data set [15], in data set [16], in [17], in data set [18], in data set [19] and in [20] was Active. Further, the result in [21] and in data set [22] was Active. Moreover, the inhibition entry in data set [23] and in data set [24] was “Active” throughout.
